Experimental findings from US20160031868A1, “BENZIMIDAZOLONE DERIVATIVES AS BROMODOMAIN INHIBITORS” (GILEAD SCIENCES, INC., priority 2013, published 2016) are described below.

Read-outs that look alike come from different tables or passages of the source.

The nature of data set [1]: MT-4 proliferation assay in 384-well format (Cell Titer Glo). To be noted: human, MT-4 cells, Table 2, 50% decrease in luminescence signal, read-out: CC50 MT4 384. The data set is classed as cell-based, human. How it is done:
Compounds were tested in a standardized high-throughput 384-well assay format. Each compound was serially diluted 3-fold in 100% DMSO in polypropylene 384-well plates using a Biomek FX Workstation, and 0.4 μL compound added to an assay plate containing 40 μL RPMI media. Compounds were arranged in a horizontal pattern, with 10 concentrations per compound, and 8 compounds added per plate. Due to low DMSO tolerability, the final DMSO concentration never exceeded 0.5% (v/v). Each assay plate contained 10 μM Puromycin and 0.5% DMSO in RPMI-1640 as positive and negative controls respectively. MT-4 cells (HTLV-1 transformed, human T lymphoblastoid cells, NIH Aids Reagent program) were added in volumes of 35 μL per well and 2,000 cells per well using a Biotek uFlow Workstation (Biotek, Winooski, Vt.), and the plates subsequently incubated for 5 days at 37° C. in an incubator set at 5% CO2 and 90% humidity.
After 5 days, 22 μL Cell Titer Glo (Promega) was added to the assay plates with a Biotek uFlow Workstation. Plates were subsequently placed on a Perkin Elmer Envision Plate Reader for 5 minutes before the luminescence signal was read. CC50 values were calculated from the compound concentration that caused a 50% decrease in luminescence signal, a measure of toxicity, and calculated by non-linear regression using Pipeline Pilot software (Accelrys, San Diego, Calif.).
(Cellular ATP, detected with luciferase, serves as a proxy for viable cell number.)

In the next data set the target is T1, BRD4-1 (Homo sapiens, UniProt O60885).
T1 construct: made in house; host or cells: Escherichia coli
In words: BRD4-1 Ligand KI assay (TR-FRET displacement of Cy5 labeled probe). The data set is classed as binding. How it is done: Binding of the two tandem bromodomains, BRD4-I and BRD4-2, to a Cy5 labeled probe/ligand (Compound 201-A) were measured using a homogeneous time resolved fluorescence resonance energy transfer (TR-FRET) assay.
(§1) The labeled ligand specifically binds BRD4-1 and BRD4-2 and can be displaced by a small molecule inhibitor that shares a similar or overlapping binding site. BRD4-I and BRD4-2 were expressed and purified from Escherichia coli as N-terminal His6-tagged proteins. A Eu-cryptate labeled anti-His antibody (Perkin Elmer) was used to specifically bind BRD4. […] Assays were performed in 50 mM Hepes (pH 7.5), 150 mM NaCl, 0.1 mg/ml BSA, 0.01% (v/v) Brij, 0.5% (v/v) DMSO and 10 nM labeled ligand at the following concentrations for each BRD4 isoform: 2 nM BRD4-1 and 0.5 nM BRD4-2. After an assay reaction time of 60 minutes at 25° C., binding was measured with 2 nM Eu-cryptate labeled anti-His antibody. TR-FRET signal was detected on an Envision plate reader (Ex: 320 nm; Em: 615/665 nm; 100 μs delay and 200 μs read window). Data were normalized based on a positive (2 μM I-BET) and negative (DMSO) controls and IC50 values were calculated from the fit of the dose-response curves to a four-parameter equation. All IC50 values represent geometric mean values of a minimum of four determinations. The IC50 values were converted to Ki values (dissociation constant for BRD4-inhibitor complex) using the Cheng and Prusoff equation for a competitive inhibitor mode of action. These assays generally produced results within 3-fold of the reported mean.

In the next data set the target is T2, BRD4-2 (Homo sapiens, UniProt O60885).
T2 construct: made in house; host or cells: Escherichia coli
Put plainly: BRD4-2 Ligand KI assay (TR-FRET displacement of Cy5 labeled probe). Format: binding. The protocol: as §1, with “BRD4-I” for “The labeled ligand specifically binds BRD4-1 and BRD4-2 and can be displaced by a small molecule inhibitor that shares a similar or overlapping binding site. BRD4-I”, “action.” for “action. These assays generally produced results within 3-fold of the reported mean.”
A general note: TR-FRET usually uses a lanthanide donor and a delayed reading to cut background.

In data set [2] the test system is c-Myc produced in MM1S cells. In words: c-Myc down regulation assay (MSD ELISA) in MM1S cells. The data set is classed as cell-based. The note with it: Homo sapiens, MM1.S, 24 hrs incubation, geometric mean, read-out: cMYC EC50. How it is done:
An enzyme linked immunosorbent assay using the Meso Scale Diagnostic (MSD) technology was used to detect levels of c-Myc produced in MM1S cells (ATCC). MM1S cells were cultured in RPMI-1640 media (Corning), supplemented with 10% FBS (Hyclone), 1% penicillin-streptomycin (Cellgro), 2-mercaptoethanol (Gibco) and seeded onto 384-tissue culture treated filter binding plates (Millipore) at a density of 40K cells/well containing titrations of small molecule inhibitors or DMSO (0.4%) in a volume of 100 μl of media. After an incubation time of 24 hrs, cells were lysed (1× lysis buffer (Thermo) supplemented with protease and phosphatase inhibitor cocktail (Thermo)) and the plates centrifuged (1000 rpm, 1 min) to capture c-Myc on MSD plates coated with a monoclonal c-Myc antibody (Origene). Assay wells were washed (3× Invitrogen wash buffer) and probed with a polyclonal c-Myc antibody (Abcam) and MSD detection antibody solution in order to detect levels of c-Myc on the MSD platform. c-Myc capture was reported in pg/ml based on a standard curve using recombinant c-Myc protein (Prosci). EC50 values were calculated from the fit of the dose-response curves to a four-parameter equation. All EC50 values represent geometric mean values of a minimum of four determinations. These assays generally produced results within 3-fold of the reported mean.

Setting [3] is: 10 nM labeled ligand, 2 nM BRD4-1, Ki from IC50 by Cheng and Prusoff, read-out: BRD4-1 Ligand K1.
Where [4] appears, read: 10 nM labeled ligand, 0.5 nM BRD4-2, Ki from IC50 by Cheng and Prusoff, read-out: BRD4-2 Ligand K2.

The term CC50 denotes the concentration at which the toxic effect on the cells reaches its halfway point. For orientation: EC50 means the concentration needed to bring the measured effect to its halfway point. In the case of `Cc1noc(C)c1-c1cc(-c2c(C3CC3)n[nH]c2C2CC2)c2[nH]c(=O)[nH]c2c1` [Example 23, 4-(3,5-dicyclopropyl-1H-pyrazol-4-yl)-6-(3,5-dimethylisoxazol-4-yl)-1H-benzo[d]imidazol-2(3H)-one], the CC50 at 5 days in data set [1] is 9.1 nM. The Ki on BRD4-1 (setting [3]) is 12.9 nM; at BRD4-2 (setting [4]), 3 nM. Also, in data set [2], the EC50 came out at 13.2 nM.
On the same counts, the results for `Cc1noc(C)c1-c1cc(C(O)(c2ccccc2)c2ccc3ccc(F)cc3n2)c2[nH]c(=O)[nH]c2c1` (stereo not drawn) [Example 33, 6-(3,5-dimethylisoxazol-4-yl)-4-((7-fluoroquinolin-2-yl)(hydroxy)(phenyl)methyl)-1H-benzo[d]imidazol-2(3H)-one] are 29.1 nM, 14.1 nM, 5.3 nM and 176 nM.
As for `Cc1noc(C)c1-c1cc(C(O)(c2ccccn2)c2ccc3ccc(F)cc3n2)c2[nH]c(=O)[nH]c2c1` (stereo not drawn) [Example 36, 6-(3,5-dimethylisoxazol-4-yl)-4-((7-fluoroquinolin-2-yl)(hydroxy)(pyridin-2-yl)methyl)-1H-benzo[d]imidazol-2(3H)-one], in data set [1], the 50% cytotoxic concentration (CC50) at 5 days came out at 29.1 nM. Also, the Ki at BRD4-1 (setting [3]) amounted to 14.1 nM; at BRD4-2 (setting [4]) it was 5.3 nM. In addition, the EC50 in data set [2] stood at 176 nM.
Turning to `Cc1noc(C)c1-c1cc(C(O)(c2ccc(F)cn2)c2c(F)cccc2F)c2[nH]c(=O)[nH]c2c1` (stereo not drawn) [Example 38, 4-((2,6-difluorophenyl)(5-fluoropyridin-2-yl)(hydroxy)methyl)-6-(3,5-dimethylisoxazol-4-yl)-1H-benzo[d]imidazol-2(3H)-one], the cytotoxic concentration (CC50) at 5 days in data set [1] amounted to 29.7 nM. Further, the Ki at BRD4-1 (setting [3]) was 7.8 nM; at BRD4-2 (setting [4]) it was 4.4 nM. Further, the concentration for a half-maximal effect (EC50) in data set [2] was 84.7 nM.
On the same counts, the results for `Cc1noc(C)c1-c1cc(C(O)(c2ccc(F)cn2)c2ccc(F)cc2F)c2[nH]c(=O)[nH]c2c1` (stereo not drawn) [Example 39, 4-((2,4-difluorophenyl)(5-fluoropyridin-2-yl)(hydroxy)methyl)-6-(3,5-dimethylisoxazol-4-yl)-1H-benzo[d]imidazol-2(3H)-one] are 42.1 nM, 11.8 nM, 5.9 nM and 128 nM.
Consider `Cc1noc(C)c1-c1cc(C(O)(c2ccc(F)cn2)c2cc(F)ccc2F)c2[nH]c(=O)[nH]c2c1` (stereo not drawn) [Example 41, 4-((2,5-difluorophenyl)(5-fluoropyridin-2-yl)(hydroxy)methyl)-6-(3,5-dimethylisoxazol-4-yl)-1H-benzo[d]imidazol-2(3H)-one], for which the half-maximal cytotoxic concentration (CC50) at 5 days in data set [1] is 47.3 nM. Besides, the Ki at BRD4-1 (setting [3]) was determined as 12.8 nM; on BRD4-2 (setting [4]) it was 5 nM. The EC50 in data set [2] came out at 104 nM.
Consider `Cc1noc(C)c1-c1cc(C(O)(c2cnccn2)c2c(F)cccc2F)c2[nH]c(=O)[nH]c2c1` (stereo not drawn) [Example 49, 4-((2,6-difluorophenyl)(hydroxy)(pyrazin-2-yl)methyl)-6-(3,5-dimethylisoxazol-4-yl)-1H-benzo[d]imidazol-2(3H)-one], for which the 50% cytotoxic concentration (CC50) at 5 days in data set [1] was 9.7 nM. Also, at BRD4-1 (setting [3]), the Ki amounted to 8.1 nM.
As to `Cc1noc(C)c1-c1cc(C(O)(c2cccnn2)c2c(F)cccc2F)c2[nH]c(=O)[nH]c2c1` (stereo not drawn) [Example 50, 4-((2,6-difluorophenyl)(hydroxy)(pyridazin-3-yl)methyl)-6-(3,5-dimethylisoxazol-4-yl)-1H-benzo[d]imidazol-2(3H)-one], the 50% cytotoxic concentration (CC50) at 5 days in data set [1] is 16 nM. Besides, the results for the Ki at BRD4-1 (setting [3]) and at BRD4-2 (setting [4]) were 8.7 nM and 5.9 nM, respectively.
As to `Cc1noc(C)c1-c1cc(C(O)(c2ccc(F)cn2)c2c(F)cc(F)cc2F)c2[nH]c(=O)[nH]c2c1` (stereo not drawn) [Example 52, 6-(3,5-dimethylisoxazol-4-yl)-4-((5-fluoropyridin-2-yl)(hydroxy)(2,4,6-trifluorophenyl)methyl)-1H-benzo[d]imidazol-2(3H)-one], in data set [1], the cytotoxic concentration (CC50) at 5 days is 36.1 nM. Moreover, the Ki on BRD4-1 (setting [3]) turned out to be 8.9 nM; on BRD4-2 (setting [4]), 6.4 nM. Also, the EC50 in data set [2] amounted to 135 nM.
Consider `Cc1noc(C)c1-c1cc(C(O)(c2ccccn2)c2ccc(Cl)cn2)c2[nH]c(=O)[nH]c2c1` (stereo not drawn) [Example 54, 4-((5-chloropyridin-2-yl)(hydroxy)(pyridin-2-yl)methyl)-6-(3,5-dimethylisoxazol-4-yl)-1H-benzo[d]imidazol-2(3H)-one], for which the cytotoxic concentration (CC50) at 5 days in data set [1] was 27.1 nM. The Ki on BRD4-1 turned out to be 22.7 nM; at BRD4-2 it was 14.1 nM. Also, in data set [2], the half-maximal effective concentration (EC50) came to 111 nM.
Turning to `Cc1noc(C)c1-c1cc(C(O)(c2ccc(Cl)cn2)c2ccc(Cl)cn2)c2[nH]c(=O)[nH]c2c1` [Example 55, 4-(bis(5-chloropyridin-2-yl)(hydroxy)methyl)-6-(3,5-dimethylisoxazol-4-yl)-1H-benzo[d]imidazol-2(3H)-one], the CC50 at 5 days in data set [1] stood at 41 nM. For the same compound, the figures for the Ki at BRD4-1 (setting [3]) and on BRD4-2 (setting [4]) were 14.5 nM and 18.2 nM, respectively. Moreover, the concentration for a half-maximal effect (EC50) in data set [2] came out at 141 nM.
On the same counts, the results for `Cc1noc(C)c1-c1cc(C(O)(c2cnccn2)c2c(F)cc(F)cc2F)c2[nH]c(=O)[nH]c2c1` (stereo not drawn) [Example 56, 6-(3,5-dimethylisoxazol-4-yl)-4-(hydroxy(pyrazin-2-yl)(2,4,6-trifluorophenyl)methyl)-1H-benzo[d]imidazol-2(3H)-one] are 24.8 nM, 6 nM, 3.6 nM and 40.9 nM.
On the same counts, the results for `Cc1noc(C)c1-c1cc(-c2cccnc2C2CC2)c2[nH]c(=O)[nH]c2c1` [Example 73, 4-(2-cyclopropylpyridin-3-yl)-6-(3,5-dimethylisoxazol-4-yl)-1H-benzo[d]imidazol-2(3H)-one] are 61 nM, 34.2 nM, 24 nM and 154 nM.
With `Cc1noc(C)c1-c1cc(C(O)(c2ccccn2)C2CCCCC2)c2[nH]c(=O)[nH]c2c1` (stereo not drawn) [Example 144, 4-(cyclohexyl(hydroxy)(pyridin-2-yl)methyl)-6-(3,5-dimethylisoxazol-4-yl)-1H-benzo[d]imidazol-2(3H)-one], the Ki stood at 7.7 nM at BRD4-1 (setting [3]) and 2.7 nM on BRD4-2 (setting [4]).
